Legend:
[1] = Metabolite profiling and identification in plasma, urine and feces (LC/RAM/MS); format: in vivo, human; conditions: for Plasma %AUC (percentage of total plasma radioactivity): AUC-pooled 0–72 h plasma; for Plasma %AUC (percentage of total plasma radioactivity) / Urine %Dose / Feces %Dose: mean of 6 subjects; for Urine %Dose: pooled 0–72 h urine, total in urine 37.15%; for Feces %Dose: pooled 0–168 h feces, total in feces 62.08%
Procedure: The plasma samples from six subjects were pooled individually according to the AUC method to obtain 6 plasma samples of 0–72 h ([Hop et al., 1998]). A portion of the proportionally mixed plasma sample was taken and added to a certain volume of acetonitrile (3×, v/v) for extraction, vortexed for 1 min, shaken for 10 min and then stored in a refrigerator at 4°C for 30 min, the mixture was removed and vortexed for 2 min and then centrifuged for 10 min at 10,000×g and 4°C. The residue from the extraction was firstly ultrasonically suspended using 1 mL of ultrapure water and then extracted using methanol (2×, v/v) and repeated twice. The organic solvent extracts were combined, blown dry with nitrogen and reconstituted with acetonitrile: ultrapure water (1:1), the reconstituted solution was centrifuged at 4°C and 10,000×g for 10 min, and the supernatant was used for radio-metabolite profiling.
The radioactivity in the organic solvent extract and the reconstitution solution was determined by LSC. The solid residue after extraction was dissolved by heating with 1N KOH solution and added to the scintillation solution to determine its radioactivity. All the final data were used to examine the recovery of radioactivity during plasma extraction.
The urine samples from the six subjects were mixed in the same volume percentage to obtain six 0–72 h urine samples. A portion of the proportionally mixed urine sample was centrifuged for 10 min at approximately 10,000×g and 4°C. Two samples were taken before and after centrifugation, and the radioactivity of the samples was determined by LSC, and the data obtained were used to calculate the recovery of radioactivity during the centrifugation process. A portion of the supernatant after centrifugation was used directly for radio-metabolite profiling.
The fecal samples from the six subjects were mixed with the same weight percentage to obtain 6 fecal homogenate samples of 0–168 h. A portion of the proportionally mixed fecal homogenate samples was taken and extracted by adding a volume of acetonitrile (3×, v/v), vortexed for 5 min at room temperature, sonicated for 5 min and then centrifuged for 10 min at 10,000 × g and 4°C. The residue of the extracted material was firstly sonicated and mixed using about 1 mL of ultrapure water before extracted using methanol (2×, v/v). The process was repeated twice and the organic extracts were combined, blown dry using nitrogen and then reconstituted with dimethyl sulfoxide: acetonitrile: ultrapure water (3:2:5), the reconstituted solution was centrifuged at 10,000×g at 4°C for 10 min and the supernatant was used for radio-metabolite profiling. […] LSC was used to determine the intensity of radioactivity contained in the organic solvent extract and in the reconstituted solution. The solid residue after extraction is fully combusted by an oxidative combustor, and the [^14C]carbon dioxide produced by combustion of the sample is captured with a scintillation solution to determine its radioactivity intensity. All final data were used to examine the extraction and recovery of radioactivity from fecal homogenate samples.
A high performance liquid chromatograph coupled with an online isotope detector and mass spectrometry (LC/RAM/MS) was used for the identification of radioactive metabolite profiles. The HPLC method consisted of an HPLC system (Shimadzu UFLC-20A-Lite), a chromatographic column (ACE Excel 3 C18, 150 × 4.6 mm id), mobile phase A (0.4% aqueous formic acid, pH = 3.2 adjusted with ammonia) and mobile phase B (acetonitrile) at a flow rate of 0.7 mL/min. The gradient was 0% B for the 0–5 min, 20% B from 15 min to 30 min, 22% B from 32 to 40 min, and 70%–100% B from 60 to 72 min. The column temperature was 28°C. […]

[2] = tested on: cDNA-expressed recombinant human cytochrome P450s and silensomes as well as human liver microsomes with selective chemical CYP inhibitors; set-up: method as in unpublished data; conditions: conducted in Hutch-Med DMPK department ref unpublished data; cited from earlier work

F: %Dose in feces (Figure 4) [1]	P: %AUC in plasma (Figure 4) [1]	U: %Dose in urine (Figure 4) [1]	Feces %Dose [1]	%Dose in pooled feces ([1]; subject 01001)	%Dose in pooled feces ([1]; subject 01002)	%Dose in pooled feces ([1]; subject 01003)	%AUC in AUC-pooled plasma ([1]; subject 01004)	%Dose in pooled feces ([1]; subject 01004)	%AUC in AUC-pooled plasma ([1]; subject 01005)	%Dose in pooled feces ([1]; subject 01005)	%AUC in AUC-pooled plasma ([1]; subject 01006)	%Dose in pooled feces ([1]; subject 01006)	SMILES	Plasma %AUC (percentage of total plasma radioactivity) [1]	Urine %Dose [1]	enzyme involved in the formation of the metabolite from amdizalisib [2]	further results
5.06%	0.12%		5.06 %Dose	4.78 %Dose	5.18 %Dose	5.65 %Dose	0.16 %AUC	6.15 %Dose	0.26 %AUC	4.03 %Dose	0.27 %AUC	4.54 %Dose	C[C@H](Nc1ncnc(N)c1C#N)c1cc2ncc(Cl)n2nc1-c1ccc(O)cc1 [M406-1]	0.12 %AUC		formed primarily by CYP2C9	
11.30%	20.91%	8.08%	11.30 %Dose	9.93 %Dose	13.05 %Dose	10.17 %Dose	16.67 %AUC	5.32 %Dose	20.09 %AUC	14.97 %Dose	36.04 %AUC	14.33 %Dose	C[C@H](Nc1nc(O)nc(N)c1C#N)c1cc2ncc(Cl)n2nc1-c1ccccc1 [M406-2]	20.91 %AUC	8.08 %Dose	aldehyde oxidase	contribution to amdizalisib metabolism ([1]; estimated from the metabolite amounts in excreta): around 20%; %AUC in AUC-pooled plasma ([1]; subject 01001): 16.31 %AUC; %Dose in pooled urine ([1]; subject 01001): 8.77 %Dose; %AUC in AUC-pooled plasma ([1]; subject 01002): 16.12 %AUC; %Dose in pooled urine ([1]; subject 01002): 9.03 %Dose; %AUC in AUC-pooled plasma ([1]; subject 01003): 20.20 %AUC; %Dose in pooled urine ([1]; subject 01003): 8.92 %Dose; %Dose in pooled urine ([1]; subject 01004): 7.29 %Dose; %Dose in pooled urine ([1]; subject 01005): 6.50 %Dose; %Dose in pooled urine ([1]; subject 01006): 7.98 %Dose
1.04%	+	+	1.04 %Dose	0.40 %Dose	0.91 %Dose	2.11 %Dose		0.69 %Dose		1.53 %Dose		0.60 %Dose	C[C@H](Nc1ncnc(N)c1C(N)=O)c1cc2ncc(Cl)n2nc1-c1ccccc1 [M408]	detected by mass spectrometry, but could not be quantified and +	detected by mass spectrometry, but could not be quantified and +		

SMILES	F: %Dose in feces (Figure 4) [1]	P: %AUC in plasma (Figure 4) [1]	U: %Dose in urine (Figure 4) [1]	Feces %Dose [1]	%Dose in pooled feces ([1]; subject 01001)	%Dose in pooled feces ([1]; subject 01002)	%Dose in pooled feces ([1]; subject 01003)	%AUC in AUC-pooled plasma ([1]; subject 01004)	%Dose in pooled feces ([1]; subject 01004)	%AUC in AUC-pooled plasma ([1]; subject 01005)	%Dose in pooled feces ([1]; subject 01005)	%AUC in AUC-pooled plasma ([1]; subject 01006)	%Dose in pooled feces ([1]; subject 01006)	Plasma %AUC (percentage of total plasma radioactivity) [1]	Urine %Dose [1]	enzyme involved in the formation of the metabolite from amdizalisib [2]	further results
CC(=O)c1cc2ncc(Cl)n2nc1-c1ccccc1 [M271]	+	+	+	detected by mass spectrometry, but could not be quantified and +										detected by mass spectrometry, but could not be quantified and +	detected by mass spectrometry, but could not be quantified and +		

— publication PMC11605291 (Frontiers in Pharmacology, 2024)
